According to US10472358B2, “1H-pyrrolo[2,3-c]pyridin-7(6H)-ones and pyrazolo[3,4-c]pyridin-7(6H)-ones as inhibitors of BET proteins” (Incyte Corporation, priority 2014, dated 2019):

What follows are compounds tested on KMS.12.BM cells (assay: KMS.12.BM cell viability assay (Cell Titer-GLO, ATP quantitation)). Details: KMS-12-BM, 72 h; human myeloma cells, 3 days, concentration required for 50% cell death.
Format: cell-based
Method: Example B1: KMS.12.BM Cell Viability Assay
KMS.12.BM cell line (human myeloma) was purchased from JCRB (Osaka, Japan) and maintained in RPMI with 10% FBS culture medium. To measure the cytotoxic activity of the compounds through ATP quantitation, the KMS.12.BM cells are plated in the RPMI culture medium at 5000 cells/well/per 100 μL into a 96-well polystyrene clear black tissue culture plate (Greiner-bio-one through VWR, NJ), in the presence or absence of a concentration range of test compounds. After 3 days, […] Cell Titer-GLO Luminescent (Promega, Madison, Wis.) cell culture agent is added to each well for 10 minutes at room temperature to stabilize the luminescent signal. This determines the number of viable cells in culture based on quantitation of the ATP present, which signals the presence of metabolically active cells. Luminescence is measured with the Top Count 384 (Packard Bioscience through Perkin Elmer, Boston, Mass.). Compound inhibition is determined relative to cells cultured with no drug and the IC50 is reported as the compound concentration required for 50% cell death.

Question: With CC(C)C1Oc2c(-c3cn(C)c(=O)c4[nH]ccc34)cc(C(N)=O)cc2N(C)C1=O (stereo not drawn) [Example 19, 2-isopropyl-4-methyl-8-(6-methyl-7-oxo-6,7-dihydro-1H-pyrrolo[2,3-c]pyridin-4-yl)-3-oxo-3,4-dihydro-2H-1,4-benzoxazine-6-carboxamide] as the compound, how does the IC50 read?
Answer: Its IC50 is ≤ 1000 nM.

Question: With CNC(=O)c1cc2c(c(-c3cn(C)c(=O)c4[nH]ccc34)c1)OC(C(C)C)C(=O)N2 (stereo not drawn) [Example 20, 2-isopropyl-N-methyl-8-(6-methyl-7-oxo-6,7-dihydro-1H-pyrrolo[2,3-c]pyridin-4-yl)-3-oxo-3,4-dihydro-2H-1,4-benzoxazine-6-carboxamide] as the compound, how does the IC50 read?
Answer: Its IC50 is ≤ 1000 nM.

Question: For CC(C)C1Oc2c(cc([N+](=O)[O-])cc2-c2cn(C)c(=O)c3[nH]ccc23)NC1=O (stereo not drawn) [Example 21, 2-isopropyl-8-(6-methyl-7-oxo-6,7-dihydro-1H-pyrrolo[2,3-c]pyridin-4-yl)-6-nitro-2H-1,4-benzoxazin-3(4H)-one], which IC50 is on record?
Answer: The IC50 was ≤ 1000 nM.

Question: COc1cc(-c2cn(C)c(=O)c3[nH]ccc23)c2c(c1)N(C)CC(C(C)C)O2 (stereo not drawn) [Example 22, 4-(2-isopropyl-6-methoxy-4-methyl-3,4-dihydro-2H-1,4-benzoxazin-8-yl)-6-methyl-1,6-dihydro-7H-pyrrolo[2,3-c]pyridin-7-one] was tested. Which IC50 did it give?
Answer: Its IC50 is 1000 to 10000 nM.

Question: For COc1cc2c(c(-c3cn(C)c(=O)c4[nH]ccc34)c1)OC(C1CC1)C(=O)N2 (stereo not drawn) [Example 23, 2-cyclopropyl-6-methoxy-8-(6-methyl-7-oxo-6,7-dihydro-1H-pyrrolo[2,3-c]pyridin-4-yl)-2H-1,4-benzoxazin-3(4H)-one], which IC50 is on record?
Answer: The IC50 was 1000 to 10000 nM.

Question: How did the IC50 turn out when COc1cc2c(c(-c3cn(C)c(=O)c4[nH]ccc34)c1)OC(c1ccccc1)C(=O)N2 (stereo not drawn) [Example 24, 6-methoxy-8-(6-methyl-7-oxo-6,7-dihydro-1H-pyrrolo[2,3-c]pyridin-4-yl)-2-phenyl-2H-1,4-benzoxazin-3(4H)-one] was run?
Answer: The IC50 was ≤ 1000 nM.

Question: COc1cc2c(c(-c3cn(C)c(=O)c4[nH]ccc34)c1)OC(c1ccc(F)cc1Cl)C(=O)N2 (stereo not drawn) [Example 25, 2-(2-chloro-4-fluorophenyl)-6-methoxy-8-(6-methyl-7-oxo-6,7-dihydro-1H-pyrrolo[2,3-c]pyridin-4-yl)-2H-1,4-benzoxazin-3(4H)-one] was tested. Which IC50 did it give?
Answer: Its IC50 is ≤ 1000 nM.

Question: How did the IC50 turn out when COc1cc2c(c(-c3cn(C)c(=O)c4[nH]ncc34)c1)OC(C(C)C)C(=O)N2 (stereo not drawn) [Example 26, 2-isopropyl-6-methoxy-8-(6-methyl-7-oxo-6,7-dihydro-1H-pyrazolo[3,4-c]pyridin-4-yl)-2H-1,4-benzoxazin-3(4H)-one] was run?
Answer: The IC50 was ≤ 1000 nM.

Question: COc1cc2c(c(-c3cn(C)c(=O)c4[nH]ccc34)c1)OC(C)(C)C(=O)N2 [Example 27, 6-methoxy-2,2-dimethyl-8-(6-methyl-7-oxo-6,7-dihydro-1H-pyrrolo[2,3-c]pyridin-4-yl)-2H-1,4-benzoxazin-3(4H)-one] was tested. Which IC50 did it give?
Answer: The IC50 was ≤ 1000 nM.

Question: How did the IC50 turn out when CC(C)C1Oc2c(cc(-c3cnn(C)c3)cc2-c2cn(C)c(=O)c3[nH]ccc23)NC1=O (stereo not drawn) [Example 28, 2-isopropyl-8-(6-methyl-7-oxo-6,7-dihydro-1H-pyrrolo[2,3-c]pyridin-4-yl)-6-(1-methyl-1H-pyrazol-4-yl)-2H-1,4-benzoxazin-3(4H)-one] was run?
Answer: Its IC50 is ≤ 1000 nM.

Question: With COc1cc2c(c(-c3cn(C)c(=O)c4[nH]ncc34)c1)OC(C)(C)C(=O)N2 [Example 29, 6-methoxy-2,2-dimethyl-8-(6-methyl-7-oxo-6,7-dihydro-1H-pyrazolo[3,4-c]pyridin-4-yl)-2H-1,4-benzoxazin-3(4H)-one] as the compound, how does the IC50 read?
Answer: The IC50 was ≤ 1000 nM.

Question: For Cn1cc(-c2cccc3c2OC2(CC2)C(=O)N3)c2cc[nH]c2c1=O [Example 30, 8-(6-methyl-7-oxo-6,7-dihydro-1H-pyrrolo[2,3-c]pyridin-4-yl)spiro[1,4-benzoxazine-2,1′-cyclopropan]-3(4H)-one], which IC50 is on record?
Answer: The IC50 was ≤ 1000 nM.

Question: Cn1cc(-c2cccc3c2OC(C)(C)C(=O)N3)c2cc[nH]c2c1=O [Example 31, 2,2-dimethyl-8-(6-methyl-7-oxo-6,7-dihydro-1H-pyrrolo[2,3-c]pyridin-4-yl)-2H-1,4-benzoxazin-3(4H)-one] was tested. Which IC50 did it give?
Answer: Its IC50 is ≤ 1000 nM.

Question: Cn1cc(-c2cccc3c2NC(C)(C)C(=O)N3)c2cc[nH]c2c1=O [Example 32, 3,3-dimethyl-5-(6-methyl-7-oxo-6,7-dihydro-1H-pyrrolo[2,3-c]pyridin-4-yl)-3,4-dihydroquinoxalin-2(1H)-one] was tested. Which IC50 did it give?
Answer: Its IC50 is ≤ 1000 nM.

Question: CC(C)C1Oc2c(cc(C(=O)N3CCOCC3)cc2-c2cn(C)c(=O)c3[nH]ccc23)NC1=O (stereo not drawn) [Example 33, 2-isopropyl-8-(6-methyl-7-oxo-6,7-dihydro-1H-pyrrolo[2,3-c]pyridin-4-yl)-6-(morpholin-4-ylcarbonyl)-2H-1,4-benzoxazin-3(4H)-one] was tested. Which IC50 did it give?
Answer: Its IC50 is ≤ 1000 nM.

Question: CC(C)C1Oc2c(cc(C(=O)N(C)C)cc2-c2cn(C)c(=O)c3[nH]ccc23)NC1=O (stereo not drawn) [Example 34, 2-isopropyl-N,N-dimethyl-8-(6-methyl-7-oxo-6,7-dihydro-1H-pyrrolo[2,3-c]pyridin-4-yl)-3-oxo-3,4-dihydro-2H-1,4-benzoxazine-6-carboxamide] was tested. Which IC50 did it give?
Answer: The IC50 was ≤ 1000 nM.

Question: COc1cc2c(c(-c3cn(C)c(=O)c4[nH]ccc34)c1)OC(C1CCCC1)C(=O)N2 (stereo not drawn) [Example 35, 2-cyclopentyl-6-methoxy-8-(6-methyl-7-oxo-6,7-dihydro-1H-pyrrolo[2,3-c]pyridin-4-yl)-2H-1,4-benzoxazin-3(4H)-one] was tested. Which IC50 did it give?
Answer: The IC50 was ≤ 1000 nM.

Question: How did the IC50 turn out when CC(C)C1Oc2c(cc(CO)cc2-c2cn(C)c(=O)c3[nH]ccc23)NC1=O (stereo not drawn) [Example 36, 6-(hydroxymethyl)-2-isopropyl-8-(6-methyl-7-oxo-6,7-dihydro-1H-pyrrolo[2,3-c]pyridin-4-yl)-2H-1,4-benzoxazin-3(4H)-one] was run?
Answer: The IC50 was ≤ 1000 nM.

Question: With COCc1cc2c(c(-c3cn(C)c(=O)c4[nH]ccc34)c1)OC(C(C)C)C(=O)N2 (stereo not drawn) [Example 37, 2-isopropyl-6-(methoxymethyl)-8-(6-methyl-7-oxo-6,7-dihydro-1H-pyrrolo[2,3-c]pyridin-4-yl)-2H-1,4-benzoxazin-3(4H)-one] as the compound, how does the IC50 read?
Answer: Its IC50 is ≤ 1000 nM.

Question: With CC(=O)NCc1cc2c(c(-c3cn(C)c(=O)c4[nH]ccc34)c1)OC(C(C)C)C(=O)N2 (stereo not drawn) [Example 40, N-{[2-isopropyl-8-(6-methyl-7-oxo-6,7-dihydro-1H-pyrrolo[2,3-c]pyridin-4-yl)-3-oxo-3,4-dihydro-2H-1,4-benzoxazin-6-yl]methyl}acetamide] as the compound, how does the IC50 read?
Answer: The IC50 was ≤ 1000 nM.

Question: CC(C)C1Oc2c(cc(C(N)=O)cc2-c2cn(C)c(=O)c3[nH]ccc23)NC1=O (stereo not drawn) [Example 41, 2-isopropyl-8-(6-methyl-7-oxo-6,7-dihydro-1H-pyrrolo[2,3-c]pyridin-4-yl)-3-oxo-3,4-dihydro-2H-1,4-benzoxazine-6-carboxamide] was tested. Which IC50 did it give?
Answer: The IC50 was ≤ 1000 nM.

Question: COc1cc2c(c(-c3cn(C)c(=O)c4[nH]ncc34)c1)OC(C1CCCC1)C(=O)N2 (stereo not drawn) [Example 42, 2-Cyclopentyl-6-methoxy-8-(6-methyl-7-oxo-6,7-dihydro-1H-pyrazolo[3,4-c]pyridin-4-yl)-2H-1,4-benzoxazin-3(4H)-one] was tested. Which IC50 did it give?
Answer: The IC50 was ≤ 1000 nM.

Question: How did the IC50 turn out when CC(C)C1Oc2c(cc(S(C)(=O)=O)cc2-c2cn(C)c(=O)c3[nH]ccc23)NC1=O (stereo not drawn) [Example 44, 2-isopropyl-8-(6-methyl-7-oxo-6,7-dihydro-1H-pyrrolo[2,3-c]pyridin-4-yl)-6-(methylsulfonyl)-2H-1,4-benzoxazin-3(4H)-one] was run?
Answer: Its IC50 is ≤ 1000 nM.

Question: For Cn1cc(-c2cc(S(C)(=O)=O)cc3c2OC(C)(C)C(=O)N3)c2cc[nH]c2c1=O [Example 45, 2,2-dimethyl-8-(6-methyl-7-oxo-6,7-dihydro-1H-pyrrolo[2,3-c]pyridin-4-yl)-6-(methylsulfonyl)-2H-1,4-benzoxazin-3(4H)-one], which IC50 is on record?
Answer: Its IC50 is ≤ 1000 nM.

Question: Which IC50 does the source give for CC(C)C1Oc2c(-c3cn(C)c(=O)c4[nH]ccc34)cc(S(C)(=O)=O)cc2N(C)C1=O (stereo not drawn) [Example 47, 2-isopropyl-4-methyl-8-(6-methyl-7-oxo-6,7-dihydro-1H-pyrrolo[2,3-c]pyridin-4-yl)-6-(methylsulfonyl)-2H-1,4-benzoxazin-3(4H)-one] here?
Answer: Its IC50 is ≤ 1000 nM.

Question: For Cn1cc(-c2cc(S(C)(=O)=O)cc3c2OC(CCO)C(=O)N3)c2cc[nH]c2c1=O (stereo not drawn) [Example 48, 2-(2-hydroxyethyl)-8-(6-methyl-7-oxo-6,7-dihydro-1H-pyrrolo[2,3-c]pyridin-4-yl)-6-(methylsulfonyl)-2H-1,4-benzoxazin-3(4H)-one], which IC50 is on record?
Answer: Its IC50 is ≤ 1000 nM.

Question: CC(O)c1cc2c(c(-c3cn(C)c(=O)c4[nH]ccc34)c1)OC(C(C)C)C(=O)N2 (stereo not drawn) [Example 50, 6-(1-hydroxyethyl)-2-isopropyl-8-(6-methyl-7-oxo-6,7-dihydro-1H-pyrrolo[2,3-c]pyridin-4-yl)-2H-1,4-benzoxazin-3(4H)-one] was tested. Which IC50 did it give?
Answer: Its IC50 is ≤ 1000 nM.

Question: How did the IC50 turn out when CCS(=O)(=O)c1cc2c(c(-c3cn(C)c(=O)c4[nH]ccc34)c1)OC(C(C)C)C(=O)N2 (stereo not drawn) [Example 51, 6-(ethylsulfonyl)-2-isopropyl-8-(6-methyl-7-oxo-6,7-dihydro-1H-pyrrolo[2,3-c]pyridin-4-yl)-2H-1,4-benzoxazin-3(4H)-one] was run?
Answer: Its IC50 is ≤ 1000 nM.

Question: For CC(C)C1Oc2c(cc(S(=O)(=O)C(C)C)cc2-c2cn(C)c(=O)c3[nH]ccc23)NC1=O (stereo not drawn) [Example 52, 2-isopropyl-6-(isopropylsulfonyl)-8-(6-methyl-7-oxo-6,7-dihydro-1H-pyrrolo[2,3-c]pyridin-4-yl)-2H-1,4-benzoxazin-3(4H)-one], which IC50 is on record?
Answer: Its IC50 is ≤ 1000 nM.

Question: CC(C)C1Oc2c(-c3cn(C)c(=O)c4[nH]ccc34)cc(S(C)(=O)=O)cc2N(CC2CC2)C1=O (stereo not drawn) [Example 53, 4-(cyclopropylmethyl)-2-isopropyl-8-(6-methyl-7-oxo-7-dihydro-1H-pyrrolo[2,3-c]pyridin-4-yl)-6-(methylsulfonyl)-2H-1,4-benzoxazin-3(4H)-one] was tested. Which IC50 did it give?
Answer: The IC50 was ≤ 1000 nM.
